# Data reported in patent US11896009B2, “Bioactive composition for improving stress tolerance of plants” (FYTEKO, priority 2015, dated 2024).
# Assay: Antioxidant test, DPPH radical scavenging (Example 9)
# Format: biochemical
# Procedure: The antioxidant activity of oligoferulates prepared as described in example 1, ferulic acid (W518301, Sigma-Aldrich), gallic acid (27645, Sigma-Aldrich) and ascorbic acid (A0278, Sigma-Aldrich) was determined using a method based on the scavenging of the stable radical 2,2-diphenyl-1-picrylhydrazyl (DPPH) (Brand Williams et al, Food Sci Technol-Lebens Wissens Technol. 1995; 28:25-30) and the results expressed as IC50 (concentration of antioxidant which reduces the free radical DPPH⋅ about 50%). This method is frequently used to predict the antioxidant activities of different molecules.
row,antioxidant activity IC50 (concentration which reduces the free radical DPPH about 50%),SMILES
1,5 µg/mL,O=C1O[C@H]([C@@H](O)CO)C(O)=C1O [ascorbic acid]
2,25 µg/mL,COc1cc(/C=C/C(=O)O)ccc1O [ferulic acid]
3,2 µg/mL,O=C(O)c1cc(O)c(O)c(O)c1 [gallic acid]
